What was measured:
[1] = test system: collagen-induced arthritis; assay: Arthritis induced by collagen in rats; type: in vivo, female DA/Slc rat; conditions: limbs scored at 27 days, full score 30, *p < 0.05
Procedure: (iv) Inhibitive Effect for Chronic Articular Rheumatism
(1) Arthritis Induced by Collagen in Rats
Experiment was performed according to the method of Osterman et al. (Inflamm. Res., 44, 258-263). An inducing agent (an emulsion prepared by adding an equal volume of physiological saline and 2 equivalent volume of incomplete Freund adjuvant to 0.3% solution of type II collagen of bovine origin) 0.1 ml each was applied intracutaneously to the 4 sites of the back of a female DA/Slc rat. After a lapse of 1 week, the same inducing agent was further applied intracutaneously to the tail root to induce arthritis. At 27 days the limbs were scored responding to the degree of redness and edema and assessed as 30 was regarded as full scores. The compound of the invention was dissolved in an equimolar amount of 0.02 mole/L sodium hydroxide solution, diluted with distilled water, and orally given 3 times a day from the next day of the first administration of inducer.

murine EP4 = biological target: T1, murine EP4 (Mus musculus, UniProt P32240); assay: Receptor-binding experiment (3H-PGE2 binding inhibition) using membranes of CHO cells expressing prostanoid receptor sub-types; conditions: binding to EP4 receptor, CHO cell membranes, read-out: Dissociation Constant Ki
T1 construct: expressed in transfected cells; host or cells: CHO cells (membrane fraction)
T1 sequence (P32240 whole entry): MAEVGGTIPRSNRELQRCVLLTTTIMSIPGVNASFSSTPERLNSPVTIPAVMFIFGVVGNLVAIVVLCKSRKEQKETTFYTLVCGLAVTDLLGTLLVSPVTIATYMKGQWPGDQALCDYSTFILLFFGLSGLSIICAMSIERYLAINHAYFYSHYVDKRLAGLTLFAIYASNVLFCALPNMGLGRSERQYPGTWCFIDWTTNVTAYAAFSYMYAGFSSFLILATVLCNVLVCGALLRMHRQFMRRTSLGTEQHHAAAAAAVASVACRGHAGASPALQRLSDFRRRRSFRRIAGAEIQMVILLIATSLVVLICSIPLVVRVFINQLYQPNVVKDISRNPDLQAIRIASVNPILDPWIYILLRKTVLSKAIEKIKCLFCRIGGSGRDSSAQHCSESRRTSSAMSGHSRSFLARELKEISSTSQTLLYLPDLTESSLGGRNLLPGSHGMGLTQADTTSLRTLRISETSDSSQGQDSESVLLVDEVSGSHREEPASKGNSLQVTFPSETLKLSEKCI
Procedure: (i) Experiment for receptor-binding using cells which express prostanoid receptor sub-types
According to the method of Sugimoto et al. (J. Biol. Chem., 267, 6463-6466 (1992)), CHO cells which expressed prostanoid receptor sub-types (murine EP1, EP2, EP3α, and EP4, respectively) were prepared and used as membrane authentic samples.
A reaction solution (200 μl) containing the prepared membrane fraction (0.5 mg/ml) and ^3H-PGE2 was incubated at room temperature for 1 hour. The reaction was terminated with ice cold buffer (3 ml), and the reaction mixture was filtered under suction through a glass filter (GF/B), on which the binding ^3H-PGE2 was trapped, and the binding radioactivity was measured by means of a liquid scintillator.
The Kd value was obtained from the Acatchard plots [Ann. N.Y. Acad. Sci., 51, 660 (1949)]. Non-specific binding was obtained as the binding in the presence of an excess amount (2.5 μM) of unlabelled PGE2. Measurement of the binding inhibition for ^3H-PGE2 with the compounds of the invention was performed by adding ^3H-PGE2 (2.5 nM) and a series of concentrations of the compound of the invention. In this reaction, the following buffer was used in all cases. • Buffer: 10 mM potassium phosphate (pH 6.9), 1 mM EDTA, 10 mM MgCl2, and 0.1M NaCl.
Dissociation constant Ki (μM) of each compound was calculated from the following equation. Ki=IC50/(1+([C]/Kd))

fibula bone fracture = assay: Effect of accelerating cure of bone fracture (rat fibula fracture model; callus bone density and three-point bending strength); type: in vivo, male IGS rats; conditions: 50 ng/kg/min intravenously for 2 hours twice a day for 21 days
Procedure: (ix) Effect of Accelerating Cure of Bone Fracture
According to the methods of R. Sakai (Bone, 25, 191-196 (1999)), H. Kawaguchi (Endocrinology, 135, 774-781 (1994)) and T. Hoshino (J. Biomed Mater Res., 51, 229-306 (2000)), a bone fracture model was prepared with male IGS rats of 8 weeks of age. Hair of the left hind-limb of a rat was cut under anesthetization with pentobarbital Na, and Viccillin S 500 (500 mg potency) (Meiji Seika) was intramuscularly injected at a dose of 10 mg potency/100 μl distilled water/body. Then, the skin on the fibula (from the back of knee joint to tendo Achillis) was incised to ablate the muscular tissue and expose the fibula. […] The recovered fibulae were taken radiographs to assess development of the cure of fracture based on the presence of a fracture line and callus formation, and the density and strength of the bone around the fracture portion were measured. […]
The bone density of the callus region at the fracture position of the recovered fibula was measured referring to the reports of C. […] During photographing, a phantom for quantitative analysis of bone salt for mice (Kyoto Kagaku Co.) was set together in order to make an analytical curve for measurement of bone density. The image was read by a Bio-imaging Analyzer BAS-1800 (FUJIFILM)/Image Reader (FUJIFILM) and processed with an Image Gauge, ver.3.1.12 (FUJIFILM). […]

## O=C(O)CCCSCCN1C(=O)CC[C@@H]1/C=C/[C@@H](O)Cc1cccc(Cl)c1 [Example 3 (b), (15α,13E)-9-Oxo-15-hydroxy-16-(3-chlorophenyl)-17,18,19,20-tetranor-5-thia-8-azaprost-13-enoic acid]
[1]; 300 μg/kg orally 3 times a day
  Arthritic Score (Means ± SE): 19.3 ± 1.4*

## O=C(O)CCCSCCN1C(=O)CC[C@@H]1/C=C/[C@@H](O)Cc1ccc(F)cc1 [Example 3 (l), (15α,13E)-9-Oxo-15-hydroxy-16-(4-fluorophenyl)-17,18,19,20-tetranor-5-thia-8-azaprost-13-enoic acid]
[1]; 100 μg/kg orally 3 times a day
  Arthritic Score (Means ± SE): 16.3 ± 3.0*

## Cc1ccc(C[C@H](O)/C=C/[C@H]2CCC(=O)N2CCSCCCC(=O)O)o1 [Example 3 (kk), (15α,13E)-9-Oxo-5-hydroxy-16-(5-methylfuran-2-yl)-17,18,19,20-tetranor-5-thia-8-azaprost-13-enoic acid]
[1]; 100 μg/kg orally 3 times a day
  Arthritic Score (Means ± SE): 11.9 ± 3.6*

## O=C(O)CCCCCCN1C(=O)CC[C@@H]1/C=C/[C@@H](O)Cc1cccc(C#Cc2ccccc2)c1 [Example 2(pp), (15α,13E)-9-Oxo-15-hydroxy-16-(3-(2-phenylethynyl)phenyl)-17,18,19,20-tetranor-8-azaprost-13-enoic acid]
Murine EP4
  Ki: 0.24 nM

## O=C1CC[C@H](/C=C/[C@@H](O)Cc2ccc(F)cc2)N1CCSCCCCO [Example 4 (h), (15α,13E)-9-Oxo-15-hydroxy-16-(4-fluorophenyl)-17,18,19,20-tetranor-5-thia-8-azaprost-13-en-1-ol]
[1]; 300 μg/kg orally 3 times a day
  Arthritic Score (Means ± SE): 9.8 ± 1.9*

## CCCc1cccc(C[C@H](O)/C=C/[C@H]2CCC(=O)N2CCSCCCC(=O)O)c1 [Example 3(e), (15α,13E)-9-Oxo-15-hydroxy-16-(3-propylphenyl)-17,18,19,20-tetranor-5-thia-8-azaprost-13-enoic acid]
Murine EP4
  Ki: 0.71 nM

## COCc1cccc(C[C@H](O)/C=C/[C@H]2[C@H](O)CC(=O)[C@@H]2CCSCCCC(=O)OC)c1 [Compound (1), (11α,15α,13E)-9-Oxo-11,15-dihydroxy-16-(3-methoxymethylphenyl)-17,18,19,20-tetranor-5-thiaprost-13-enoic acid methyl ester]
Fibula bone fracture; callus region
  Bone Density: 42.8 ± 2.58 mg/cm^2
Fibula bone fracture; three-point bending test
  Fracture Strength: 30.4 ± 12.4% of intact

Source: patent US8207223B2, “Pharmaceutical composition for treatment of diseases associated with decrease in bone mass comprising EP4 agonist as active ingredient” (Ono Pharmaceutical Co., Ltd., priority 2001, dated 2012)
